Measurements from BindingDB's records for doi:10.1021/jm070645a (Rockefeller University, 2007).

Target: Mitogen-activated protein kinase 1 (Homo sapiens, UniProt P28482)
Test: Radiological Kinase Inhibition Assay
Conditions: pH 7.5; 22 °C
Description: Kinase activity was assayed for autophosphorylation and phosphorylation of MBP with radio-labeled gamma-32P. IC50 values were calculated from binding curves using LSW Data Analysis Tool Box version 1.1.1 in MicroSoft Excel.

Sequence of Mitogen-activated protein kinase 1 (P28482 whole entry): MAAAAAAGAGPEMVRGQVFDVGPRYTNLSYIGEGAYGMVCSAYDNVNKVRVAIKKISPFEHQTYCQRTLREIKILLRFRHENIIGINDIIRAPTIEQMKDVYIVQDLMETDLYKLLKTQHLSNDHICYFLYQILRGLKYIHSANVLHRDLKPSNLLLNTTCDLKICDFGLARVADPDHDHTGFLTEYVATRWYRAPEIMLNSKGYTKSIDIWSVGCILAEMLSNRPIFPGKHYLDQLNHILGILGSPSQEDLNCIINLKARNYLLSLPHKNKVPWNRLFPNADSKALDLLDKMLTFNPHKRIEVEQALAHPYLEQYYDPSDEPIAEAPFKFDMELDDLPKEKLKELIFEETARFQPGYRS

Row | Compound | IC50 [µM]
1 | O=C1c2ccccc2C(=O)c2cc(S(=O)(=O)Nc3cccc([N+](=O)[O-])c3)ccc21 [N-(3-nitrophenyl)-9,10-dioxo-9,10-dihydroanthracene-2-sulfonamide] | > 200
2 | O=C1NC(=O)C(=Cc2ccc(Sc3ccc(Cl)cc3)c([N+](=O)[O-])c2)C(=O)N1 [5-({4-[(4-chlorophenyl)sulfanyl]-3-nitrophenyl}methylidene)pyrimidine-2,4,6(1H,3H,5H)-trione] | 53
